Reference: PubChem BioAssay AID2060614 (Molecular Pharmacology Branch, DTP, NCI, 2025)
pIC50: −log10 of the molar value.

Test system: 598228-144-R-J1-PDC complex spheroids, viability
Assay: Anticancer human tumor 598228-144-R-J1-PDC patient-derived serous endometrial adenocarcinoma cell line growth inhibition [CLK]
Conditions: for pIC50: curve of first compound; for viability, T/C: stronger effect = lower value
Text: A high-throughput screen of multi-cell type tumor spheroids was designed to identify active combinations of […] and targeted small molecules. Complex spheroids include a stromal component modeled by human endothelial cells (HUVEC) and fibroblasts modeled by human mesenchymal stem cells (MSCs). The concentration ranges selected for each drug and investigational agent were based upon clinically achievable concentrations if the clinical Cmax of the agent was known.
Compounds. The drugs and investigational agents: cirtuvivint (SM08502; NSC835563), CC-671 (NSC850746), vemurafenib (NSC761431), tapotoclax (NSC804041), sotorasib (NSC818433), adagrasib (NSC831453), MRTX-1133 (NSC836407), BAY2416964 (NSC825713), copanlisib (NSC816437), inavolisib (NSC800729), abemaciclib (NSC768073), osimertinib (NSC779217), entinostat (NSC756642), eltanexor (KPT-8602, NSC794443), venetoclax (NSC766270), ceralasertib (NSC777638), bortezomib (NSC756655), olaparib (NSC753686), talazoparib (NSC767125), alisertib (NSC759677), peposertib (NSC802822), gemcitabine (NSC613327), 5-fluorouracil (NSC19893), SN-38 (NSC673596), oxaliplatin (NSC266046), paclitaxel (NSC125973), and doxorubicin (NSC123127), were obtained from the National Cancer Institute (NCI) Developmental Therapeutics Program Chemical Repository. The FDA-approved anticancer drug set is available from the Developmental Therapeutics Program at https://dtp.cancer.gov/organization/dscb/obtaining/available plates.htm. […] The stock solutions were prepared in dimethyl sulfoxide (DMSO, Sigma-Aldrich, St. Louis, MO, cat. D2650), except for the platinum complexes which were prepared in saline (Quality Biological, Gaithersburg, MD, cat. 114-055-101), at 800-fold the tested concentration and stored at -70 degrees C prior to their use. All drugs and investigational agents were tested over a range starting from a high concentration at or near the clinical Cmax and decreasing in half-log increments. If the clinical Cmax for an agent had not been determined, the highest concentration tested was 10 microM.
Cell Culture. All cells were maintained in an incubator at 37 degrees C and 5% CO2 with 95% humidity. The PDC lines were cultured according to standard operating procedures established by the NCI PDMR. Briefly, all PDCs were thawed and cultured in Matrigel-coated flasks prepared with a working solution of 1X Ham's F-12 nutrient mix, without supplementation (Invitrogen, Waltham, MA, cat. 11765054), 100 U/mL penicillin-streptomycin (Invitrogen, cat. 15140122), and 2.5% Matrigel (Corning Inc., Corning, NY, cat. 354248) for the first three passages. The 947758-054-R-J2-PDC line was cultured in 6B/Colon 1A media, which includes advanced DMEM/F-12 (Thermo Fisher Scientific, cat. 12634028), 10 mM HEPES (Thermo Fisher Scientific, cat. 15630080), 1X GlutaMAX supplement (Thermo Fisher Scientific, cat. 35050061), 0.1 mg/mL primocin (InvivoGen, cat. ant-pm-2), 10% defined fetal bovine serum, heat inactivated (HyClone Laboratories Inc., cat. SH30070.03HI), 1.25 mM N-Acetyl-L-cysteine (Sigma-Aldrich, cat. A9165), 10 mM nicotinamide (Sigma-Aldrich, cat. N0636), 1X B-27 supplement (Thermo Fisher Scientific, cat. 17504044), 1X N-2 supplement (Thermo Fisher Scientific, cat. 17502048), and 10 microM Y-27632 dihydrochloride (Tocris Bioscience, cat. 1254). The 876862-298-R-J1-PDC was cultured in 6E media, which includes all 6B/Colon 1A media components plus 50% L-WRN conditioned media (ATCC, cat. CRL-3276), 50 ng/mL recombinant human EGF recombinant protein (hEGF; Thermo Fisher Scientific, cat. PHG0311), 10 ng/mL recombinant human fibroblast growth factor 10 (hGFG-10; PeproTech, cat. 100-26), 1 ng/mL recombinant human fibroblast growth factor 2 (hFGF-2; PeproTech, cat. 100-18B), and 1 µM prostaglandin E2 (PGE2; Tocris, cat. 2296). The 227483-062-R1-J1-PDC line was cultured in Panc media, containing all 6E components except hFGF-2, with the addition of 500 nM SB-431542 (Selleckchem, cat. S1067) and 10 nM gastrin (Tocris, cat. 3006). […]

[1] = second compound 0.0316 µM, first compound 0.0316 µM
[2] = second compound 0.0316 µM, first compound 0.1 µM
[3] = second compound 0.0316 µM, first compound 0.316 µM
[4] = second compound 0.0316 µM, first compound 1 µM
[5] = second compound 0.1 µM, first compound 0.0316 µM
[6] = second compound 0.1 µM, first compound 0.1 µM
[7] = second compound 0.1 µM, first compound 0.316 µM
[8] = second compound 0.1 µM, first compound 1 µM
[9] = second compound 0.316 µM, first compound 0.0316 µM
[10] = second compound 0.316 µM, first compound 0.1 µM
[11] = second compound 0.316 µM, first compound 0.316 µM
[12] = second compound 0.316 µM, first compound 1 µM
[13] = second compound 1 µM, first compound 0.0316 µM
[14] = second compound 1 µM, first compound 0.1 µM
[15] = second compound 1 µM, first compound 0.316 µM
[16] = second compound 1 µM, first compound 1 µM
[17] = second compound 3.16 µM, first compound 0.0316 µM
[18] = second compound 3.16 µM, first compound 0.1 µM
[19] = second compound 3.16 µM, first compound 0.316 µM
[20] = second compound 3.16 µM, first compound 1 µM
[21] = second compound 10 µM, first compound 0.0316 µM
[22] = second compound 10 µM, first compound 0.1 µM
[23] = second compound 10 µM, first compound 0.316 µM
[24] = second compound 10 µM, first compound 1 µM
[25] = second compound 0.0316 µM, first compound 0.00316 µM
[26] = second compound 0.0316 µM, first compound 0.01 µM
[27] = second compound 0.1 µM, first compound 0.00316 µM
[28] = second compound 0.1 µM, first compound 0.01 µM
[29] = second compound 0.316 µM, first compound 0.00316 µM
[30] = second compound 0.316 µM, first compound 0.01 µM
[31] = second compound 1 µM, first compound 0.00316 µM
[32] = second compound 1 µM, first compound 0.01 µM
[33] = second compound 3.16 µM, first compound 0.00316 µM
[34] = second compound 3.16 µM, first compound 0.01 µM
[35] = second compound 10 µM, first compound 0.00316 µM
[36] = second compound 10 µM, first compound 0.01 µM
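Note: spheroids exposed to compounds for seven days before readout.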
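Throughout, for viability, T/C: 100% = DMSO vehicle control wells.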

CC(Nc1ccc2c(c1)OCCn1cc(N3C(=O)OCC3C(F)F)nc1-2)C(N)=O (stereo unspecified) + CN1CCN(c2cc(C(=O)Nc3cc4cc(-c5cnn(C)c5)ccc4cn3)ccn2)CC1
pIC50 (second compound 0.0316 µM): 6.05
pIC50 (second compound 0.1 µM): 6.57
pIC50 (second compound 0.316 µM): > 7.50
pIC50 (second compound 1 µM): > 7.50
pIC50 (second compound 3.16 µM): > 7.50
pIC50 (second compound 10 µM): > 7.50
viability, T/C [1]: 97.7%
viability, T/C [2]: 66.2%
viability, T/C [3]: 67%
viability, T/C [4]: 47.1%
viability, T/C (second compound 0.0316 µM, first compound 3.16 µM): 40.3%
viability, T/C (second compound 0.0316 µM, first compound 10 µM): 24.4%
viability, T/C [5]: 87.9%
viability, T/C [6]: 64.3%
viability, T/C [7]: 44.9%
viability, T/C [8]: 38.6%
viability, T/C (second compound 0.1 µM, first compound 3.16 µM): 26.5%
viability, T/C (second compound 0.1 µM, first compound 10 µM): 18.3%
viability, T/C [9]: 12.3%
viability, T/C [10]: 9.13%
viability, T/C [11]: 10.7%
viability, T/C [12]: 6.85%
viability, T/C (second compound 0.316 µM, first compound 3.16 µM): 4.58%
viability, T/C (second compound 0.316 µM, first compound 10 µM): 7.75%
viability, T/C [13]: 1.13%
viability, T/C [14]: 0.87%
viability, T/C [15]: 2.39%
viability, T/C [16]: 0.6%
viability, T/C (second compound 1 µM, first compound 3.16 µM): 0.73%
viability, T/C (second compound 1 µM, first compound 10 µM): 0.42%
viability, T/C [17]: 1.56%
viability, T/C [18]: 1.01%
viability, T/C [19]: 0.62%
viability, T/C [20]: 0.69%
viability, T/C (second compound 3.16 µM, first compound 3.16 µM): 1.66%
viability, T/C (second compound 3.16 µM, first compound 10 µM): 1.62%
viability, T/C [21]: 0.62%
viability, T/C [22]: 0.46%
viability, T/C [23]: 1.49%
viability, T/C [24]: 0.44%
viability, T/C (second compound 10 µM, first compound 3.16 µM): 4.05%
viability, T/C (second compound 10 µM, first compound 10 µM): 2.58%

CCN1CCN(Cc2ccc(Nc3ncc(F)c(-c4cc(F)c5nc(C)n(C(C)C)c5c4)n3)nc2)CC1 + CN1CCN(c2cc(C(=O)Nc3cc4cc(-c5cnn(C)c5)ccc4cn3)ccn2)CC1
pIC50 (second compound 0.0316 µM): < 6.00
pIC50 (second compound 0.1 µM): < 6.00
pIC50 (second compound 0.316 µM): > 8.50
pIC50 (second compound 1 µM): > 8.50
pIC50 (second compound 3.16 µM): > 8.50
pIC50 (second compound 10 µM): > 8.50
viability, T/C [25]: 126%
viability, T/C [26]: 113%
viability, T/C [1]: 119%
viability, T/C [2]: 112%
viability, T/C [3]: 116%
viability, T/C [4]: 103%
viability, T/C [27]: 125%
viability, T/C [28]: 122%
viability, T/C [5]: 115%
viability, T/C [6]: 115%
viability, T/C [7]: 123%
viability, T/C [8]: 107%
viability, T/C [29]: 17.8%
viability, T/C [30]: 17.6%
viability, T/C [9]: 15.1%
viability, T/C [10]: 19.9%
viability, T/C [11]: 20.7%
viability, T/C [12]: 24.4%
viability, T/C [31]: 1.42%
viability, T/C [32]: 5.67%
viability, T/C [13]: 1.8%
viability, T/C [14]: 1.54%
viability, T/C [15]: 1.56%
viability, T/C [16]: 6.64%
viability, T/C [33]: 1.54%
viability, T/C [34]: 3.86%
viability, T/C [17]: 2.86%
viability, T/C [18]: 1.78%
viability, T/C [19]: 2.22%
viability, T/C [20]: 5.76%
viability, T/C [35]: 1%
viability, T/C [36]: 3.61%
viability, T/C [21]: 0.93%
viability, T/C [22]: 1.25%
viability, T/C [23]: 3.23%
viability, T/C [24]: 3.64%

COc1c(OCCCN2CCOCC2)ccc2c3n(c(=NC(=O)c4cnc(N)nc4)nc12)CCN3 + CN1CCN(c2cc(C(=O)Nc3cc4cc(-c5cnn(C)c5)ccc4cn3)ccn2)CC1
pIC50 (second compound 0.0316 µM): 7.51
pIC50 (second compound 0.1 µM): 7.71
pIC50 (second compound 0.316 µM): > 8.50
pIC50 (second compound 1 µM): > 8.50
pIC50 (second compound 3.16 µM): > 8.50
pIC50 (second compound 10 µM): > 8.50
viability, T/C [25]: 98.2%
viability, T/C [26]: 75.7%
viability, T/C [1]: 46.8%
viability, T/C [2]: 31.9%
viability, T/C [3]: 15.7%
viability, T/C [4]: 8.56%
viability, T/C [27]: 85.5%
viability, T/C [28]: 66.5%
viability, T/C [5]: 36.7%
viability, T/C [6]: 23.5%
viability, T/C [7]: 9.69%
viability, T/C [8]: 10.4%
viability, T/C [29]: 10.5%
viability, T/C [30]: 8.73%
viability, T/C [9]: 5.42%
viability, T/C [10]: 2.85%
viability, T/C [11]: 2.66%
viability, T/C [12]: 2.22%
viability, T/C [31]: 1.16%
viability, T/C [32]: 0.94%
viability, T/C [13]: 0.73%
viability, T/C [14]: 0.29%
viability, T/C [15]: 1.53%
viability, T/C [16]: 3.1%
viability, T/C [33]: 0.95%
viability, T/C [34]: 2.7%
viability, T/C [17]: 0.9%
viability, T/C [18]: 0.57%
viability, T/C [19]: 1.8%
viability, T/C [20]: 4.26%
viability, T/C [35]: 0.66%
viability, T/C [36]: 2.16%
viability, T/C [21]: 2.49%
viability, T/C [22]: 0.4%
viability, T/C [23]: 0.59%
viability, T/C [24]: 3.39%
